B1: AnCDA (Aspergillus nidulans chitin deacetylase) (Aspergillus nidulans FGSC A4) (protein)
chain: TPLPLVRRVPTGQVITQCTTPNTIALTFDDGPSEYTPQLLDLLSRYSARATFFVLGDAAAQNPGLLQRMRDEGHQVGAHTYDHVSLPSLGYDGIASQMTRLEEVIRPALGVAPAYMRPPYLETNELVLQVMRDLDYRVISASVDTKDYENQDADAIINTSFQLFLDQLDAGGNIVLAHDIHYWTVASLAERMLQEVNARGLIATTVGDCLGDGEIAWYH
notes: recombinant AnCDA (GenBank XM_677557.1), expressed in Pichia pastoris, His-tag purified

What was measured:
[1] = target: T1, AnCDA (Aspergillus nidulans chitin deacetylase) (Aspergillus nidulans, UniProt Q5AQQ0); experiment: acetate release assay on (GlcNAc)[…] with purified AnCDA; Dixon plot Ki (abstract also gives IC50 […]); type: biochemical
T1 construct: gene cda; recombinant AnCDA (GenBank XM_677557.1), expressed in Pichia pastoris, His-tag purified
T1 sequence (Q5AQQ0 19-237): B1 chain

[2] = substrate: CC(=O)N[C@H]1[C@H](O[C@H]2[C@H](O)[C@@H](NC(C)=O)[C@H](O[C@H]3[C@H](O)[C@@H](NC(C)=O)C(O)O[C@@H]3CO)O[C@@H]2CO)O[C@H](CO)[C@@H](O[C@@H]2O[C@H](CO)[C@@H](O[C@@H]3O[C@H](CO)[C@@H](O)[C@H](O)[C@H]3NC(C)=O)[C@H](O)[C@H]2NC(C)=O)[C@@H]1O; experiment: enzyme kinetics (Km) by acetate release assay; type: biochemical, Aspergillus nidulans; conditions: Co2+ ([…] CoCl2 in assay) active site

Molecule	Ki [1] [µM]	Km [2] [µM]
Cc1ccc(-c2nc(CNC(=O)c3cccnc3Cl)no2)cc1 [J075-4187]	31.6	–
B1	–	72
